Structures can show the parent of a compound that is named as a salt.
Key:
MAO-B = conditions: cited from earlier work; for MAO-B inhibition (targeting): GNR-E constituents, ref Previous studies
MAO-A = conditions: cited from earlier work; for selective MAO-A inhibition: GNR-E constituents, ref Previous studies
immobility = system: immobility; parameters: method as in Sahu et al.; conditions: α-mangostin from G. mangostana, by elevating 5-HT; ref Sahu et al.; cited from earlier work
[1] = system: antidepressant-like properties; conditions: through monoaminergic modulation; cited from earlier work
[2] = system: CMS-induced anhedonia behavior; assay: Sucrose preference (consumption) test in CMS mice; type: in vivo, male ICR mice; conditions: imipramine 20 mg/kg p.o. daily, by week 4
Method: Five-week-old male ICR mice (15–20 g) were obtained from Nomura Siam International (Bangkok, Thailand) and acclimatized for seven days prior to experimentation. The study protocol adhered to the Guiding Principle for the Care and Use of Animals (NIH Publications #8-23, revised 2011) and was approved by the Animal Ethics Committee of Khon Kaen University (approval No. IACUC-KKU-121/64), complying with ARRIVE guideline 2.0. […] Behavioral experiments were conducted between 07:00 and 17:00 h. The CMS procedure, adapted from Willner, was applied to experimental mice over 48 days. Seventy-two mice were randomly assigned to six groups: a non-stress control group and four CMS-exposed groups for 6 weeks. […] The amount consumed each day was recorded and used to group the mice and establish the baseline sucrose consumption before initiating the chronic stress procedure. During the subsequent experimental period (week 1–6), sucrose consumption was measured weekly using the same deprivation and testing conditions under chronic stress. The weight of each mouse and the amount of sucrose solution consumed were recorded and calculated as the amount of sucrose intake g/kg body weight).

serotonin (5-HT) = assay: Serotonin (5-HT) levels in frontal cortex and hippocampus of CMS mice; type: in vivo, male ICR mice; conditions: daily imipramine 20 mg/kg or GNR-E 450 mg/kg, vs vehicle-treated CMS group
Method: (§1) The CMS procedure, adapted from Willner, was applied to experimental mice over 48 days. Seventy-two mice were randomly assigned to six groups: a non-stress control group and four CMS-exposed groups for 6 weeks. Stressors included a tilted cage at 45° (12 h), restricted food access (five micro pellets, 1 h), empty bottle exposure (3 h), wet cage (200 mL water in 100 g sawdust bedding, 21 h), reversed light–dark cycle (36 h), intermittent sound (3 and 5 h), paired caging (2 h), and food/water deprivation (18 h), applied randomly weekly and repeated over 6 weeks (Figure 11). The non-stressed group was maintained under standard conditions.
(§2) Mice were randomly divided into six groups (n = 15). The non-stress group received 0.5% sodium carboxymethylcellulose (SCMC; 1 mL/kg, p.o.), while the CMS group received 0.5% SCMC (1 mL/kg, p.o.). […]
Serotonin levels in mouse brain extracts were quantified using a modified fluorometric method.A 0.2 mL brain extract sample was mixed with 0.25 mL O-phthaldialdehyde (Sigma-Aldrich, St. Louis, MO, USA) and heated to 100 °C for 10 min to form a fluorophore. Levels were measured spectrofluorometrically at 340 nm (excitation) and 470 nm (emission) after cooling to room temperature. Concentrations were determined against a calibration curve (0, 25, 50, 100, 200, 300, 400 µg/mL) using the equation Y = AX + B, expressed as µg/mL.

[3] = system: depressive-like behaviors; assay: Chronic mild stress (CMS) mouse model of depression, behaviours overall; type: in vivo, male ICR mice; conditions: CMS mice, oral GNR-E 50, 150, 450 mg/kg/day, imipramine 20 mg/kg/day
Method: as §1, with “conditions. Mice were randomly divided into six groups […]. The non-stress group received 0.5% sodium carboxymethylcellulose (SCMC; 1 mL/kg, p.o.), while the CMS group received 0.5% SCMC (1 mL/kg, p.o.). […] All treatments were given daily for 3 weeks, starting on day 21, at 8:00 a.m., one hour before behavioral testing.” for “conditions.”

[4] = system: SERT, 5-HT1A, 5-HT1B, 5-HT2A, 5-HT2C, and 5-HT7; assay: qPCR of serotonergic biomarker genes in frontal cortex and hippocampus of CMS mice; type: in vivo, male ICR mice
Description: The CMS procedure, adapted from Willner [4], was applied to experimental mice over 48 days. Seventy-two mice were randomly assigned to six groups: a non-stress control group and four CMS-exposed groups for 6 weeks.
The frontal cortex (FC) and hippocampus (HP) were dissected from the brain for serotonin (5-HT), norepinephrine (NE) level assessments, and RT-qPCR analyses.
Total RNA was extracted from frontal cortex (FC) and hippocampus (HP) using TRLzol® reagent (Thermo Fisher Scientific Inc., San Jose, CA, USA), with purity and quantity assessed via UV spectrophotometry. Complementary DNA (cDNA) was synthesized using 10 mM dNTP, 50 µM oligo (dT)12-13 primer, and SuperScript® III reverse transcriptase (200 U/µL) in a FlexCycler2 PCR Thermal Cycler (Analytik Jena, Thuringia, Germany). Single-stranded DNA was annealed to gene-specific primers (Pacific Science, Bangkok, Thailand) at optimized temperatures, followed by extension. Double-stranded DNA was quantified using SYBR Green master mix (Thermo Fisher Scientific Inc., San Jose, CA, USA) in a 20 µL reaction containing 2X SYBR Green PCR Master Mix, 10 nM of each primer, and 5 µL cDNA. […] Melting curve analysis was conducted post-amplification. Glyceraldehyde 3-phosphate dehydrogenase (GAPDH) mRNA served as the housekeeping gene, and fold differences were calculated using the 2^−∆∆CT method, incorporating standard deviation into the fold-difference calculation [30].

norepinephrine (NE) = assay: Norepinephrine (NE) levels in frontal cortex and hippocampus of CMS mice; type: in vivo, male ICR mice; conditions: daily imipramine 20 mg/kg or GNR-E 450 mg/kg, vs vehicle-treated CMS group
Method: as §1, §2
Brain supernatant (0.2 mL) was combined with 0.1 mL sodium acetate buffer (pH 6.9), 0.05 mL HCl (0.4 M), and 0.1 mL iodine solution (0.1 M in ethanol) for oxidation. […] Excitation and emission spectra were recorded at 395 nm and 485 nm, respectively, using a calibrated spectrofluorometer. Norepinephrine concentrations were calculated from a standard curve (0, 50, 100, 140, 220, 280, 300 µg/mL) prepared in distilled water and butanol/HCl (1:2 ratio).

NET, α2A, and α2C = assay: qPCR of noradrenergic biomarker genes in frontal cortex and hippocampus of CMS mice; type: in vivo, male ICR mice
Method: as §1
(§3) Mice were randomly divided into six groups (n = 15). The non-stress group received 0.5% sodium carboxymethylcellulose (SCMC; 1 mL/kg, p.o.), while the CMS group received 0.5% SCMC (1 mL/kg, p.o.). The CMS + imipramine (IMP) group was administered imipramine hydrochloride (20 mg/kg, p.o.), and the CMS + GNR-E groups received GNR-E at 50, 150, and 450 mg/kg (p.o.), respectively. All treatments were given daily for 3 weeks, starting on day 21, at 8:00 a.m., one hour before behavioral testing.
Following behavioral tests, mice were anesthetized with […] (Nembutal®, Ceva Sante Animal, Libourne, France) at 60 mg/kg (i.p.) and decapitated. Blood and brain samples were collected immediately. Blood was centrifuged at 3000 rpm at 21 °C for 20 min to obtain serum for ELISA analysis. […]
(§4) Total RNA was extracted from frontal cortex (FC) and hippocampus (HP) using TRLzol® reagent (Thermo Fisher Scientific Inc., San Jose, CA, USA), with purity and quantity assessed via UV spectrophotometry. […] Double-stranded DNA was quantified using SYBR Green master mix (Thermo Fisher Scientific Inc., San Jose, CA, USA) in a 20 µL reaction containing 2X SYBR Green PCR Master Mix, 10 nM of each primer, and 5 µL cDNA. […] Glyceraldehyde 3-phosphate dehydrogenase (GAPDH) mRNA served as the housekeeping gene, and fold differences were calculated using the 2^−∆∆CT method, incorporating standard deviation into the fold-difference calculation.

[5] = system: serum corticosterone (CORT); assay: Serum corticosterone (CORT) ELISA in CMS mice; type: in vivo, male ICR mice; conditions: daily imipramine 20 mg/kg or GNR-E 50, 150 and 450 mg/kg, p < 0.001 vs vehicle-treated CMS group
Method: as §1
as §3, with “testing. […]” for “testing.”
Corticosterone levels were measured using an enzyme-linked immunosorbent assay (ELISA) kit (ab108821, Abcam Ltd., Cambridge, Cambridgeshire, UK) following the manufacturer’s instructions. […]

[6] = system: glucocorticoid receptor (GR) and serum/glucocorticoid-regulated kinase-1 (SGK-1); assay: qPCR of HPA-axis genes in frontal cortex and hippocampus of CMS mice; type: in vivo, male ICR mice; conditions: FC and HP, daily imipramine or GNR-E 50, 150, 450 mg/kg, vs vehicle-treated CMS group
Method: as §1
Mice were randomly divided into six groups (n = 15). […]
as §4

[7] = FC and HP, imipramine, GNR-E 150–450 mg/kg
[8] = imipramine, GNR-E 150–450 mg/kg

COc1cc2oc3cc(O)c(CC=C(C)C)c(O)c3c(=O)c2c(CC=C(C)C)c1OC [cowaxanthone B]
MAO-B inhibition (targeting) (MAO-B): targeting MAO-B

xanthochymusxanthone A
selective MAO-A inhibition (MAO-A): selectively inhibiting MAO-A

COc1c(O)cc2oc3cc(O)c(CC=C(C)C)c(O)c3c(=O)c2c1CC=C(C)C [α-mangostin]
MAO-B inhibition (targeting) (MAO-B): targeting MAO-B | MAO-B inhibition, relative strength (MAO-B; ref Our previous study): stronger MAO-B inhibition | immobility (immobility): reducing immobility | antidepressant-like properties [1]: antidepressant-like properties

COc1c(O)cc2oc3cc(O)c(CC=C(C)C)c(O)c3c(=O)c2c1C/C=C(\C)CCC=C(C)C [cowanin]
selective MAO-A inhibition (MAO-A): selectively inhibiting MAO-A | MAO-A inhibition, rank among constituents (MAO-A; ref Our previous study): most potent toward MAO-A

cowagarcinone A
selective MAO-A inhibition (MAO-A): selectively inhibiting MAO-A

cowaxanthone
selective MAO-A inhibition (MAO-A): selectively inhibiting MAO-A

CN(C)CCCN1c2ccccc2CCc2ccccc21 [imipramine, imipramine hydrochloride]
sucrose intake (2% sucrose solution) [2]: significant increase in sucrose intake | 5-HT levels in frontal cortex and hippocampus (serotonin (5-HT)): significantly restored 5-HT and NE levels | depressive-like behaviors [3]: significantly improved depressive-like behaviors | CMS-induced upregulation of serotonergic biomarker genes (SERT, 5-HT1A, 5-HT1B, 5-HT2A, 5-HT2C, 5-HT7) ([4]; FC and HP, daily imipramine 20 mg/kg or GNR-E 50, 150, 450 mg/kg, vs vehicle-treated CMS group): significantly reduced these elevations | CMS-increased 5-HT1A and 5-HT1B mRNA expression ([4]; FC and HP, imipramine, GNR-E 450 mg/kg): reversed | CMS-upregulated SERT mRNA expression [4, 7]: reversed | CMS-elevated 5-HT2A, 5-HT2C, and 5-HT7 receptor expression [4, 8]: mitigated | NE levels in frontal cortex and hippocampus (norepinephrine (NE)): significantly restored 5-HT and NE levels | CMS-increased expression of noradrenergic genes (NET, α2A, α2C) (NET, α2A, and α2C; FC and HP, daily imipramine or GNR-E, highest dose greatest effect): significantly attenuated | CMS-upregulated NET mRNA expression (NET, α2A, and α2C; [7]): reversed | CMS-upregulated α2A and α2C receptor expression (NET, α2A, and α2C; [8]): reversed | serum CORT levels [5]: significantly reduced these elevated CORT levels | CMS-induced changes in SGK-1 (increased) and GR (decreased) mRNA levels [6]: significantly reversed these changes

Source: paper PMC12693764, “Antidepressant-like Effects of Garcinia nigrolineata Resin Extract in a Chronic Mild Stress Mouse Model: Modulation of Monoaminergic and HPA-Axis Pathways” (Plants, 2025)
